Structures can show the parent of a compound that is named as a salt.
Experiments:
[1] = system: atopic dermatitis patients; conditions: cited from earlier work
[2] = system: LPS-induced pulmonary neutrophilia in rats; test: In Vivo Assay 1: LPS induced pulmonary neutrophilia in rats, intratracheal administration; set-up: species or system rat; conditions: rats, i.t. dry powder blended in lactose; for arithmetic mean inhibition of LPS-induced pulmonary neutrophilia: about 2 hours prior to LPS
Source text: This assay is an animal model of acute inflammation in the lung—specifically neutrophilia induced by lipopolysaccharide (LPS)—and allows the study of putative inhibition of such neutrophilia (anti-inflammatory effect) by an intratracheally (i.t.) administered PDE4 inhibitor (“drug”). The PDE4 inhibitors are suitably in dry powder, aqueous solution or aqueous suspension form. I.t. administration is one model of inhaled administration, allowing topical delivery to the lung.
Animals: Male CD (Sprague Dawley Derived) rats supplied by Charles River, United Kingdom are housed in groups of 5 rats per cage, acclimatised after delivery for at least 7 days with bedding/nesting material regularly changed, fed on SDS diet R1 pelleted food given ad lib, and supplied with daily-changed pasteurised animal grade drinking water.
Device for dry powder administration: For these studies, a Penn Century DP-4 dry powder intratracheal (i.t.) delivery device (insufflator) is used for administration of a dry powder blend of vehicle (inhalation grade lactose) and the PDE4 inhibitor compound or salt of the invention (“drug”). Each device is numbered and the sample loading chamber is unscrewed from the main device and weighed. The i.t. delivery needle is also weighed. The drug+lactose blend or inhalation grade lactose (vehicle control) is then added to the sample chamber and this is then re-weighed. The sample chamber is fitted back on to the main device to prevent any drug being lost. This procedure is repeated for all of the Penn century devices to be used in the study (one separate device for each animal). After dosing to the animals, the sample chambers and needles are re-weighed in order to determine the amount of sample that was expelled from the device.
Device for aqueous solution administration: A blunt dosing needle, whose forward end is slightly angled to the needle axis, is used, with a flexible plastic portex canula inserted into the needle. The portex cannula is inserted into the lumen of the blunt stainless steel dosing needle and this is carefully inserted into the back of the animal's throat and into the trachea via the larynx. A known volume (200 microlitres) of the vehicle (0.2% Tween 80™ in saline) or of the solution (or suspension) drug composition is administered into the trachea using a plastic syringe that is attached to the portex cannula and dosing needle. A new internal cannula is used for each different drug group. After dosing, the needle is removed from the trachea and the animals are removed from the table and continually observed until they recover from the effects of anaesthesia. The animals are then returned to the holding cages and given free access to food and water, and are observed and any unusual behavioural changes noted. (Aqueous suspensions can be handled generally similarly.)
Drugs and Materials: Lipopolysaccharide (LPS) (Serotype:0127:B8, e.g. from Sigma, UK; e.g. L3129 prepared by phenol extraction) is dissolved in phosphate-buffered saline (PBS).
For dry powder, aqueous solution or aqueous suspension administration, PDE4 inhibitors are preferably used in size-reduced (e.g. micronised) form, for example according to the Micronisation Example(s) disclosed herein.
For dry powder administration of the drug, the PDE4 inhibitor compound or salt of the invention (drug) is administered as a dry powder blended with inhalation-grade (respiratory-grade) lactose, i.e. as a dry powder composition. The target quantity of dry powder composition administered i.t. to each animal is 2 mg. This remains constant throughout the studies. To achieve different doses, blends of the drug dry powder and lactose, containing different concentrations of the PDE4 inhibitor compound or salt of the invention (drug), are prepared. […]

[3] = system: LPS-induced nasal neutrophilia in rats; test: In Vivo Assay 2: LPS induced nasal neutrophilia in rats, intranasal administration; set-up: species or system rat; conditions: for inhibition (arithmetic mean) of LPS-induced nasal neutrophilia: rats, i.n. aqueous solution, about 30 minutes prior to LPS
Source text: This assay is an animal model of acute inflammation in the nose—specifically neutrophilia induced by lipopolysaccharide (LPS)— and allows the study of putative inhibition of such neutrophilia (anti-inflammatory effect) by an intranasally (i.n.) administered PDE4 inhibitor (“drug”). The PDE4 inhibitor is preferably in the form of an aqueous suspension or aqueous solution. Bolus, i.n. administration allows topical delivery to the nose.
Animals: Male CD rats (Sprague Dawley derived), weighing between 300-350 g are supplied by Charles River, UK and transported to the test site. On arrival at the test site, the animals are housed in groups of 4 or 5 per cage and complete a minimum acclimatisation period of 7 days. The animals are housed in solid bottomed cages using grade 8 sawdust. The bedding and nesting materials are changed 3 times per week. Diet comprises SDS diet R1 pelleted food given ad lib. Pasteurised animal grade drinking water is supplied and changed daily.
Lipopolysaccharide (Serotype: 0127:B8, e.g. available from Sigma, UK; e.g. L3129 prepared by phenol extraction) is used for all studies and is dissolved in phosphate-buffered saline (PBS).
Tween 80™ (e.g. available from Sigma e.g. 023K 01575). A mixture of 0.2% Tween 80™ in phosphate buffered saline (PBS) is prepared as vehicle for solution compositions. The Sigma catalogue 2004-2005 and The Handbook of Pharmaceutical Excipients (HPE) 4th edition 2003 pp. 479-483 define Tween 80™ as a brand of polysorbate 80 (according to HPE, polysorbate 80 is also named polyoxyethylene 20 sorbitan monooleate, i.e. having been copolymerised with about 20 moles of ethylene oxide for each mole of sorbitol and/or sorbitol anhydrides used).
The PDE4 inhibitor compound or salt of the invention (“drug”) is preferably used in size-reduced (e.g. micronised) form, for example according to the Micronisation Example(s) disclosed herein.
A solution of compound (0.7 mg/ml) is generally prepared by adding 0.2% Tween 80™ in phosphate buffered saline (PBS) to a pre-weighed micronised sample of the drug. The solution composition is sonicated, e.g. for approximately 2 min, and is observed to be a solution (if it is a solution) by visual assessment. A fixed volume of 50 microlitres (25 microlitres into each nostril) of either the drug-containing solution composition or a saline/Tween 80™ vehicle is administered to all animals. Each animal weighs, on average, 350 g. To achieve a dose of 100 μg/kg (100 ug/kg), each animal receives a total of 35 μg (35 ug) of the drug. The dose volume is 50 microlitres (25 microlitres to each nostril), and therefore a concentration of 35 μg (ug) per 50 microlitres (0.7 mg/ml) is prepared. To achieve lower dose concentrations, serial dilutions are prepared in saline/Tween 80™
Intranasal dosing with the PDE4 inhibitor (drug): Rats are anaesthetised by placing the animals in a sealed Perspex chamber and exposing them to a gaseous mixture of isofluorane (5%), nitrous oxide (2 L/min) and oxygen (1 L/min). Once anaesthetised, the animals are i.n. dosed with vehicle or PDE4 inhibitor aqueous compositions using a 10-100-microlitre-range Gilson pipette and plastic disposable tip. A volume of 25 microlitres is administered into each nostril by carefully inserting the pipette tip into the nostril and dispensing the required volume. When the dosing procedure is completed, the animal is returned to the cage and observed at regular intervals until it had recovered from the effects of the anaesthetic. […]

[4] = Gravimetric vapour sorption / moisture uptake of solid forms; format: physicochemical
Source text: In addition, water is believed to be readily lost from the Form 2 hydrate (a) on heating to only slightly above room temperature and/or (b) on reduction in the relative humidity (R^H) (e.g. water appears to be lost from the Form 2 hydrate when the R^H is reduced to 0% R^H).

COPD patients [5] = conditions: cited from earlier work
COPD patients [6] = conditions: cited from earlier work; remark: listed apart in the source
[7] = system: humans with histories of allergic rhinitis; conditions: orally 500 ug once daily for 9 days, intranasal allergen provocation (pollen extracts); cited from earlier work

For `COc1ccc(C2CNC(=O)NC2)cc1O[C@H]1C[C@@H]2CC[C@H]1C2` [CP80,633], the inflammatory parameters ([1]; atopic dermatitis patients, 0.5% ointment, twice daily topical application) is listed as “reductions of inflammatory parameters”.
For `CCc1nc2c(cnn2CC)c(NC2CCOCC2)c1CNC(=O)c1ccc(NC(=O)CCCCCCCN(C)CCO)cc1` [Example 1A2, N-{[1,6-diethyl-4-(tetrahydro-2H-pyran-4-ylamino)-1H-pyrazolo[3,4-b]pyridin-5-yl]methyl}-4-({8-[(2-hydroxyethyl)(methyl)amino]octanoyl}amino)benzamide monohydrochloride], the “arithmetic mean inhibition of LPS-induced pulmonary neutrophilia” value (from here on “arithmetic mean inhibition”) ([2]; about 10 micrograms/kg) was “about 29%”, the “arithmetic mean inhibition” value ([2]; about 30 micrograms/kg) was “about 44%” and the “arithmetic mean inhibition” value ([2]; about 100 micrograms/kg) was “about 39%”. The “inhibition of LPS-induced pulmonary neutrophilia” value ([2]; about 100 micrograms/kg, about 4 hours prior to LPS) was “about 60%”, the “arithmetic mean inhibition” value ([2]; about 300 micrograms/kg) was “about 55%” and the “estimated ED50 for inhibition of LPS-induced nasal neutrophilia” value ([3]; rat, i.n., micronised, aqueous solution in 0.2% Tween 80 in PBS, about 30 minutes prior to LPS challenge) was “approximately 4.6 micrograms/kg body weight”. The “inhibition (arithmetic mean) of LPS-induced nasal neutrophilia” value (“inhibition (arithmetic mean)” below) ([3]; about 1 micrograms/kg) was “essentially no inhibition”, the “inhibition (arithmetic mean)” value ([3]; about 3 micrograms/kg) was “small and non-statistically-significant inhibition” and the “inhibition (arithmetic mean)” value ([3]; about 10 micrograms/kg) was “about 62%”. The “inhibition (arithmetic mean)” value ([3]; about 100 micrograms/kg) was “about 79%”.
With `CCc1nc2c(cnn2CC)c(NC2CCOCC2)c1CNC(=O)c1ccc(NC(=O)CCCCCCCN(C)CCO)cc1` [N-{[1,6-Diethyl-4-(tetrahydro-2H-pyran-4-ylamino)-1H-pyrazolo[3,4-b]pyridin-5-yl]methyl}-4-({8-[(2-hydroxyethyl)(methyl)amino]octanoyl}amino)benzamide monohydrochloride] the “moisture uptake, % weight gain” value ([4]; 25° C., RH increased from 30% to 75%) was “about 0.5%”.
In the case of `CCc1nc2c(cnn2CC)c(NC2CCOCC2)c1CNC(=O)c1ccc(NC(=O)CCCCCCCN(C)CCO)cc1` [N-{[1,6-diethyl-4-(tetrahydro-2H-pyran-4-ylamino)-1H-pyrazolo[3,4-b]pyridin-5-yl]methyl}-4-({8-[(2-hydroxyethyl)(methyl)amino]octanoyl}amino)benzamide monohydrochloride], the “propensity to take up water as relative humidity increases” value ([4]; compared with Form 1 anhydrate) is reported as “greater propensity to take up water than the crystalline monohydrochloride Form 1 anhydrate”.
In the case of `COc1ccc([C@]2(C#N)CC[C@@H](C(=O)O)CC2)cc1OC1CCCC1` [cilomilast], the “forced expiratory volume in 1 s (FEV1)” value (COPD patients [5]; 15 mg orally twice daily) is given as “appears to improve” and the antiinflammatory effects (COPD patients [6]) is given as “appears to have antiinflammatory effects”.
In the case of `Nc1nc2c([nH]1)c(=O)n(CC1CC1)c(=O)n2CC1CC1` [cipamfylline], the “efficacy in the treatment of atopic dermatitis patients” value ([1]; 0.15% cream, versus vehicle and hydrocortisone 17-butyrate (0.1%) cream) is listed as “significantly more effective than vehicle, but significantly less effective than hydrocortisone 17-butyrate (0.1%) cream”.
For `O=C(Nc1c(Cl)cncc1Cl)c1ccc(OC(F)F)c(OCC2CC2)c1` [roflumilast], the FEV1 (COPD patients [5]) is given as “small improvements” and the “rhinal airflow during the treatment period (compared to placebo)” value [7] is given as “effective in improving rhinal airflow”.

Reference: patent publication US20090325952A1, “PYRAZOLO[3,4-B]PYRIDINE COMPOUNDS, AND THEIR USE AS PDE4 INHIBITORS” (Glaxo Group Limited, priority 2006, published 2009)
